Here are results for ten molecules from ChEMBL document CHEMBL1201862, “PubChem BioAssay data set” (2004).

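Exposure lasted 48 hours, with cells grown in 96-well plates and compounds tested at five concentrations. GI50 = concentration required for 50% inhibition of growth.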 Active and inactive are the calls of the source. Cut-off read from the data, not from the text of the source: active = GI50 up to about 1.1 µM and inactive = higher.

Among the test systems are COLO 205; SK-OV-3; DU-145; OVCAR-5; CAKI-1; OVCAR-8; HT-29; 786-0; TK-10; SW-620; KM12; U-251; HL-60; ACHN; SNB-75; SF-539; SR; SNB-19; OVCAR-4; NCI-H522.
Experiment in all cases: NCI anticancer screen, dose series, 48 h

Consider `O=C(O)c1ccccc1/N=N/c1c(O)c(S(=O)(=O)O)cc2cc(S(=O)(=O)O)ccc12`, for which the GI50 with COLO 205, in the experiment on SK-OV-3, in the experiment on DU-145, in the experiment with OVCAR-5, in the experiment with CAKI-1 and in the experiment with OVCAR-8 was > 100 µM (inactive) each time. Further, the GI50 in the experiment with HT-29 was > 100 µM (inactive); in the experiment with 786-0, > 100 µM (inactive); in the experiment on TK-10, > 100 µM (inactive); in the experiment on SW-620, > 100 µM (inactive); in the experiment with KM12, 84.3 µM (inactive); in the experiment on U-251, > 100 µM (inactive). The GI50 in the experiment on HL-60, in the experiment with ACHN, in the experiment on SNB-75, in the experiment on SF-539, in the experiment with SR and in the experiment with SNB-19 was > 100 µM (inactive) each time. Further, the GI50 in the experiment with OVCAR-4 and in the experiment with NCI-H522 was > 100 µM (inactive) throughout.

In the case of `CC(C)C[C@H](NC(=O)[C@H](Cc1cccc2ccccc12)NS(=O)(=O)c1cccc2cccnc12)B(O)O`, the GI50 in the experiment with COLO 205 was < 0.0243 µM (active); in the experiment on SK-OV-3, 0.359 µM (active); in the experiment with DU-145, 0.0445 µM (active); in the experiment on OVCAR-5, < 0.0142 µM (active); with CAKI-1, 0.0923 µM (active); in the experiment on OVCAR-8 it was 0.0557 µM (active). The GI50 in the experiment with HT-29 was < 0.0165 µM (active); in the experiment with 786-0, 0.0222 µM (active); in the experiment on TK-10 it was < 0.0285 µM (active); in the experiment with SW-620, < 0.0176 µM (active); in the experiment with KM12 it was 0.0432 µM (active); in the experiment with U-251 it was 0.0264 µM (active). Further, the GI50 is < 0.01 µM (active) in the experiment with HL-60; 0.0327 µM (active) with ACHN; < 0.01 µM (active) in the experiment on SF-539; < 0.0167 µM (active) in the experiment on SR; < 0.0225 µM (active) in the experiment with SNB-19; 0.0109 µM (active) in the experiment with OVCAR-4. Further, the GI50 in the experiment on NCI-H522 is 0.0106 µM (active).

As for `CC(CCN)(CCN)[N+](=O)[O-]`, the GI50 in the experiment with COLO 205, in the experiment with SK-OV-3, in the experiment with DU-145, in the experiment on OVCAR-5, with CAKI-1 and in the experiment with OVCAR-8 was > 100 µM (inactive) throughout. In addition, the GI50 in the experiment on HT-29, with 786-0, with TK-10, in the experiment with SW-620, in the experiment on KM12 and in the experiment on U-251 was > 100 µM (inactive) in each case. Moreover, the GI50 with HL-60, in the experiment with ACHN, with SNB-75, with SF-539, with SR and in the experiment on SNB-19 was > 100 µM (inactive) throughout. The GI50 with OVCAR-4 and in the experiment with NCI-H522 was > 100 µM (inactive) throughout.

On to `O=C(c1ccco1)N(C(=S)OC12CC3CC(CC(C3)C1)C2)c1ccccc1`, for which the GI50 is 16.4 µM (inactive) with COLO 205; 23.4 µM (inactive) in the experiment with SK-OV-3; 52.8 µM (inactive) with DU-145; 39.7 µM (inactive) in the experiment on OVCAR-5; 33.3 µM (inactive) with CAKI-1; 31.3 µM (inactive) in the experiment on OVCAR-8. Moreover, the GI50 in the experiment with HT-29 was 33.5 µM (inactive); in the experiment on 786-0 it was 31.2 µM (inactive); with TK-10, 42.3 µM (inactive); with SW-620, 29 µM (inactive); in the experiment on KM12, 31.2 µM (inactive); with U-251 it was 23.3 µM (inactive). Also, the GI50 in the experiment on HL-60 is 19.3 µM (inactive); with ACHN, 27.1 µM (inactive); in the experiment with SNB-75, 48.5 µM (inactive); with SF-539, 20.2 µM (inactive); in the experiment with SR, 25.7 µM (inactive); in the experiment on SNB-19 it was 34.7 µM (inactive). For the same molecule, the GI50 with OVCAR-4 is 36.1 µM (inactive); in the experiment on NCI-H522, 19.9 µM (inactive).

As for `N=C(CCl)NC1CN2CCC1CC2` (stereo not drawn), the GI50 with COLO 205 is 27.4 µM (inactive); with SK-OV-3, > 100 µM (inactive); with DU-145, > 100 µM (inactive); in the experiment with OVCAR-5, 75 µM (inactive); with CAKI-1, 50.9 µM (inactive); in the experiment on OVCAR-8, > 100 µM (inactive). In addition, the GI50 in the experiment on HT-29 is 48.3 µM (inactive); with 786-0 it was 97.5 µM (inactive); with TK-10, > 100 µM (inactive); in the experiment on SW-620, 68.7 µM (inactive); in the experiment on KM12 it was > 100 µM (inactive); in the experiment with U-251 it was 49.1 µM (inactive). Moreover, the GI50 with HL-60 is 18.4 µM (inactive); with ACHN, 87.7 µM (inactive); in the experiment with SNB-75, > 100 µM (inactive); in the experiment on SF-539 it was 60.5 µM (inactive); in the experiment on SR, 32.7 µM (inactive); in the experiment with SNB-19 it was > 100 µM (inactive). For the same molecule, the GI50 in the experiment with OVCAR-4 was 59 µM (inactive); in the experiment with NCI-H522, 19.4 µM (inactive).

For the molecule `O=C1/C(=C/c2ccc(O)cc2)CCC1CNc1ccc(Cl)cc1` (stereo not drawn), the GI50 with COLO 205 is 1.19 µM (inactive); with SK-OV-3, 5.14 µM (inactive); in the experiment on DU-145, 13.3 µM (inactive); with OVCAR-5, 10.1 µM (inactive); in the experiment on CAKI-1 it was 1.55 µM (inactive); in the experiment with OVCAR-8, 1.38 µM (inactive). Also, the GI50 was 1.53 µM (inactive) in the experiment on HT-29; 1.83 µM (inactive) in the experiment with 786-0; 1.72 µM (inactive) in the experiment with TK-10; 1.37 µM (inactive) in the experiment with SW-620; 0.895 µM (active) in the experiment on KM12; 5.7 µM (inactive) in the experiment with U-251. Also, the GI50 with HL-60 was 0.861 µM (active); with ACHN it was 0.76 µM (active); in the experiment with SNB-75 it was 15.6 µM (inactive); with SF-539, 6.37 µM (inactive); in the experiment with SR, 0.914 µM (active); in the experiment with SNB-19, 15.2 µM (inactive). Further, the GI50 is 2.96 µM (inactive) in the experiment with OVCAR-4 and 0.552 µM (active) in the experiment on NCI-H522.

Turning to `COc1ccc(N2C(=O)C3c4[nH]c5ccc(C)cc5c4C4CCC(C(C)(C)C)CC4C3C2=O)cc1` (stereo not drawn), the GI50 is 18.4 µM (inactive) in the experiment on COLO 205; 12.4 µM (inactive) in the experiment on SK-OV-3; > 100 µM (inactive) in the experiment on DU-145; 10.3 µM (inactive) in the experiment with CAKI-1; 6.21 µM (inactive) in the experiment with OVCAR-8; 12.7 µM (inactive) in the experiment on HT-29. Besides, the GI50 in the experiment with 786-0 is 20.4 µM (inactive); in the experiment on TK-10, 17.1 µM (inactive); in the experiment on SW-620, 5.58 µM (inactive); in the experiment on KM12, 32.8 µM (inactive); in the experiment on U-251 it was 3.85 µM (inactive); with HL-60, 19.1 µM (inactive). Also, the GI50 in the experiment on ACHN is 7.64 µM (inactive); in the experiment on SNB-75 it was 2.96 µM (inactive); with SF-539, 15.6 µM (inactive); in the experiment on SR it was 11.6 µM (inactive); with SNB-19 it was 22.6 µM (inactive); in the experiment on OVCAR-4, 3.35 µM (inactive). Besides, the GI50 with NCI-H522 is 25.6 µM (inactive).

For `Cc1ccc2c3c(cnc2n1)C(=O)OCCN3C`, the GI50 in the experiment with COLO 205, in the experiment on DU-145, in the experiment with OVCAR-5, with CAKI-1, with OVCAR-8 and in the experiment with HT-29 was > 100 µM (inactive) each time. The GI50 with 786-0, in the experiment with TK-10, with SW-620, with KM12, with U-251 and in the experiment with HL-60 was > 100 µM (inactive) each time. Also, the GI50 in the experiment on ACHN, in the experiment on SF-539, in the experiment on SR, in the experiment on SNB-19, in the experiment on OVCAR-4 and with NCI-H522 was > 100 µM (inactive) in each case.

`COc1cc(C2CC(C)(O)Oc3cc4c(cc32)OCO4)cc(OC)c1OC` (stereo not drawn): the GI50 with COLO 205 was 0.419 µM (active); in the experiment with DU-145, 0.546 µM (active); in the experiment on OVCAR-5 it was 10.9 µM (inactive); in the experiment on CAKI-1, 0.417 µM (active); in the experiment on OVCAR-8 it was 0.421 µM (active); with HT-29, 0.334 µM (active). For the same molecule, the GI50 in the experiment on 786-0 is 0.375 µM (active); in the experiment on TK-10 it was 61 µM (inactive); with SW-620, 0.33 µM (active); with KM12, 0.191 µM (active); in the experiment on U-251, 0.358 µM (active); with HL-60 it was 0.247 µM (active). The GI50 with ACHN was 0.708 µM (active); in the experiment with SF-539, 0.195 µM (active); in the experiment on SR, 0.374 µM (active); with SNB-19 it was 0.617 µM (active); with OVCAR-4 it was 0.938 µM (active); in the experiment on NCI-H522 it was 0.266 µM (active).

On to `O=c1c2cc([N+](=O)[O-])ccc2[nH]n1Cc1ccccn1`, for which the GI50 in the experiment with COLO 205, in the experiment with DU-145, in the experiment with OVCAR-5, in the experiment on CAKI-1, in the experiment on OVCAR-8 and with HT-29 was > 100 µM (inactive) in each case. The GI50 in the experiment on 786-0, with TK-10, in the experiment with SW-620, in the experiment with KM12, with U-251 and with HL-60 was > 100 µM (inactive) throughout. Moreover, the GI50 in the experiment with ACHN, in the experiment with SNB-75, in the experiment on SF-539, in the experiment with SR, in the experiment with SNB-19 and in the experiment with OVCAR-4 was > 100 µM (inactive) throughout. The GI50 in the experiment on NCI-H522 is > 100 µM (inactive).
